Reference: patent US8697690B2, “Isoindolone M1 receptor positive allosteric modulators” (Merck Sharp & Dohme Corp., priority 2010, dated 2014)

target: T1, acetylcholine muscarinic M1 receptor (Homo sapiens, UniProt P11229); test: muscarinic FLIPR assay: intracellular calcium in CHOnfat/hM1 cells, potentiation of EC20 acetylcholine; type: cell-based; conditions: IP = inflection point calculated from FLIPR values, 4 min preincubation, then EC20 acetylcholine (3 nM final)
T1 construct: expressed in transfected cells; host or cells: CHOnfat cells (CHO with NFAT reporter background), Geneticin-selected
T1 sequence (P11229 1-460): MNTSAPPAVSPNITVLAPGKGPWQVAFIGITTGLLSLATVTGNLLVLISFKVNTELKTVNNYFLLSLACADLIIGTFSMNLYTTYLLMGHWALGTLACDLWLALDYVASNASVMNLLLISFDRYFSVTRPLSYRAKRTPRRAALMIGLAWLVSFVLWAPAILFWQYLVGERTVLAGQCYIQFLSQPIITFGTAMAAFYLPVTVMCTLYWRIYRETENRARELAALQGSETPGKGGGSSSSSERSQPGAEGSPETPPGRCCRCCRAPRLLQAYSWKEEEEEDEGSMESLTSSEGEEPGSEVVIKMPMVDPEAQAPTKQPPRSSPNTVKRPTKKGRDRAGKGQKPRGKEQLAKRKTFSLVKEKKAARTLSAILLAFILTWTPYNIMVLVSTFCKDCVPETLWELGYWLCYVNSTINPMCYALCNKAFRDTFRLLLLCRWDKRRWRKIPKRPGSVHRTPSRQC
Method: The assay studies the effect of one or several concentrations of test compounds on basal or acetylcholine-stimulated Ca^2+ levels using FLIPR.
Compounds are prepared and subjected to a preincubation period of 4 min. Thereafter, a single EC20 concentration of acetylcholine is added to each well (3 nM final). The intracellular Ca^2+ level of each sample is measured and compared to an acetylcholine control to determine any modulatory activity.
Cells: CHOnfat/hM1, hM2, hM3 or hM4 cells are plated 24 hr before the assay at a density of 18,000 cells/well (100 μL) in a 384 well plate. CHOnfat/hM1 and CHOnfat/hM3 Growth Medium: 90% DMEM (Hi Glucose); 10% HI FBS; 2 mM L-glutamine; 0.1 mM NEAA; Pen-Strep; and 1 mg/ml Geneticin, are added. For M2Gqi5CHOnfat and M4Gqi5CHOnfat cells, an additional 600 ug/ml hygromycin is added.
Equipment: 384 well plate, 120 μL addition plate; 96-well Whatman 2 ml Uniplate Incubator, 37° C., 5% CO2; Skatron EMBLA-384 Plate Washer; Multimek Pipetting System; Genesis Freedom 200 System; Mosquito System; Temo Nanoliter Pipetting System; and FLIPR^384 Fluorometric Imaging Plate Reader System are used.
Buffers. Assay Buffer: Hanks Balanced Salt Solution, with 20 mM Hepes, 2.5 mM Probenecid (Sigma P-8761) first dissolved in 1 N NaOH, 1% Bovine Serum Albumin (Sigma A-9647). Dye Loading Buffer: Assay Buffer plus 1% Fetal Bovine Serum and Fluo-4AM/Pluronic Acid Mixture. 2 mM Fluo-4AM ester stock in DMSO (Molecular Probes F-14202) Concentration of 2 μM in buffer for a final concentration of 1 μM in Assay. 20% Pluronic Acid Solution stock, with concentration of 0.04% in Buffer, 0.02% in Assay.
65 μL of 2 mM Fluo-4AM are mixed with 130 μL of 20% Pluronic Acid. The resulting solution and 650 μL FBS is added to the assay buffer for a total volume of 65 mL. Positive Controls: 4-Br-A23187: 10 mM in DMSO; final concentration […]. Acetylcholine: 10 mM in water, working stock at both 20 μM and 30 μM in assay buffer, final concentration of 10 μM. This is used to check the maximum stimulation of the CHOK1/hM1 cells. 20 μM (2×) acetylcholine is added in the preincubation part of the assay, and the 30 μM (3×) stock is added in the second part. (EC20)Acetylcholine: 10 mM in water, working stock of 9 nM (3×), and final concentration in assay is 3 nM. This is used after the preincubation with test compounds. Addition of the EC20 Acetylcholine to each well with a test compound will ascertain any modulator activity. 24 wells contain 3 nM Acetylcholine alone as a control.
Determining Activity of Putative Compounds:
Screening Plate Compounds are titrated in 96-well plates (columns 2-11), 100% DMSO, started at a concentration of 15 mM (150× stock concentration), and 3-fold serial dilutions using Genesis Freedom200 System. Four 96-well plates are combined into a 384-well plate using Mosquito Nanoliter Pipetting System by transferring 1 μl of serial diluted compounds to each well, and 1 mM acetylcholine (100× stock concentration) were added as a control. Using Temo, 49 μl assay buffer is added to each well of the 384-well plate right before assay.
In a 96-well Whatman 2 ml Uniplate, 9 nM Acetylcholine (3×) is pipetted into wells corresponding to the screening compounds, and into control wells. The 30 μM acetylcholine control (3×) is added into control wells, and the 3× agonist plate is transferred into a 384 well plate.
Cells are washed three times with 100 μL of buffer, leaving 30 μL of buffer in each well. Using Multimek, 30 μL of Dye Loading Buffer is added into each well and incubated at 37° C., 5% CO2 for up to one hr.
After 60 min, the cells are washed three times with 100 μL of buffer, leaving 30 μL of buffer in each well. The cell plate, screening plate, and agonist addition plates are placed on the platform in the FLIPR and the door closed. A signal test to check background fluorescence and basal fluorescence signal is performed. Laser intensity is adjusted if necessary. […]

Row | Compound | EC50 [nM]
1 | Cc1ccc(Cc2cc3c(c4ccccc24)CN([C@H]2CCCC[C@@H]2O)C3=O)cn1 [Example 2, 2-[(1S,2S)-2-Hydroxycyclohexyl]-5-[(6-methylpyridin-3-yl)methyl]-1,2-dihydro-3H-benzo[e]isoindol-3-one] | 18
2 | O=C1c2cc(Cc3ccc(Cl)nc3)c3cccnc3c2C(CC(O)CO)N1[C@H]1CCCC[C@@H]1O (stereo partly drawn) [Example 21, 5-[(6-Chloropyridin-3-yl)methyl]-9-(2,3-dihydroxypropyl)-8-[(1S,2S)-2-hydroxycyclohexyl]-8,9-dihydro-7H-pyrrolo[3,4-h]quinolin-7-one] | 19
3 | O=C1c2cc(Cc3ccc(Cl)nc3)c3cccnc3c2C(CCO)N1[C@H]1CCCC[C@@H]1O (stereo partly drawn) [Example 24, 5-[(6-Chloropyridin-3-yl)methyl]-8-[(1S,2S)-2-hydroxycyclohexyl]-9-(2-hydroxyethyl)-8,9-dihydro-7H-pyrrolo[3,4-h]quinolin-7-one] | 7.4
4 | O=CCC1c2c(cc(Cc3ccc(Cl)nc3)c3cccnc23)C(=O)N1[C@H]1CCCC[C@@H]1O (stereo partly drawn) [Example 22, {5-[(6-Chloropyridin-3-yl)methyl]-8-[(1S,2S)-2-hydroxycyclohexyl]-7-oxo-8,9-dihydro-7H-pyrrolo[3,4-h]quinolin-9-yl}acetaldehyde] | 15
5 | CSc1ccc(Cc2cc3c(c4ccccc24)CN([C@H]2CCCC[C@@H]2O)C3=O)cn1 [Example 10, 2-[(1S,2S)-2-Hydroxycyclohexyl]-5-{[6-(methylthio)pyridine-3-yl]methyl}-1,2-dihydro-3H-benzo[e]isoindol-3-one] | 29
6 | COc1ccc(Cc2cc3c(c4ccccc24)CN(c2ncccc2C(F)(F)F)C3=O)cn1 [Example 14, 5-[(6-Methoxypyridin-3-yl)methyl]-2-[3-(trifluoromethyl)pyridin-2-yl]-1,2-dihydro-3H-benzo[e]isoindol-3-one] | 144
7 | C=Cc1ccc(Cc2cc3c(c4ccccc24)CN([C@H]2CCCC[C@@H]2O)C3=O)cn1 [Example 3, 2-[(1S,2S)-2-Hydroxycyclohexyl]-5-[(6-vinylpyridin-3-yl)methyl]-1,2-dihydro-3H-benzo[e]isoindol-3-one] | 11
8 | N#Cc1ccc(Cc2cc3c(c4ccccc24)CN([C@H]2CCCC[C@@H]2O)C3=O)cn1 [Example 9, 5-({2-[(1S,2S)-2-Hydroxycyclohexyl]-3-oxo-2,3-dihydro-1H-benzo[e]isoindol-5-yl}methyl)pyridine-2-carbonitrile] | 13
9 | O=C1c2cc(Cc3ccc(OCc4ccccc4)nc3)c3cccnc3c2CN1[C@H]1CCCC[C@@H]1O [Example 19] | 41
10 | O=C1c2cc(Cc3ccc(Cl)nc3)c3ccccc3c2CN1[C@H]1CCOC[C@@H]1O [Example 8, 5-[(6-Chloropyridin-3-yl)methyl]-2-[(3R,4S)-3-hydroxytetrahydro-2H-pyran-4-yl]-1,2-dihydro-3H-benzo[e]isoindol-3-one] | 12
11 | O=C1c2cc(Cc3ccc(C4CC4)nc3)c3cccnc3c2CN1[C@H]1CCCC[C@@H]1O [Example 25, 5-[(6-Cyclopropylpyridin-3-yl)methyl]-8-[(1S,2S)-2-hydroxycyclohexyl-8,9-dihydro-7H-pyrrolo 3,4-h]quinolin-7-one] | 10.5
12 | CC1c2c(cc(Cc3ccc(Cl)nc3)c3ccccc23)C(=O)N1c1ccccc1F (racemic) [Example 15, (±)-5-[(6-Chloropyridin-3-yl)methyl]-2-(2-fluorophenyl)-1-methyl-1,2-dihydro-3H-benzo[e]isoinol-3-one] | 665
13 | COc1ccc(Cc2cc3c(c4ccccc24)CN([C@H]2COCC[C@@H]2O)C3=O)cn1 [Example 11, 2-[(3S,4S)-4-Hydroxytetrahydro-2H-pyran-3-yl]-5-[(6-methoxypyridin-3-yl)methyl]-1,2-dihydro-3H-benzo[e]isoindol-3-one] | 52
14 | CC(=O)O[C@H]1COCC[C@@H]1N1Cc2c(cc(Cc3ccc(O)nc3)c3ccccc23)C1=O [Example 12, 2-O-Acetyl-1,5-anhydro-3,4-dideoxy-3-{3-oxo-5-[(6-oxo-1,6-dihydroyridin-3-yl)methyl]-1,3-dihydro-2H-benzo[e]isoindol-2-yl)-L-threo-pentitol] | 5200
15 | CN(C)CCC1c2c(cc(Cc3ccc(Cl)nc3)c3cccnc23)C(=O)N1[C@H]1CCCC[C@@H]1O (stereo partly drawn) [Example 23, 5-[(6-Chloropyridin-3-yl)methyl]-9-[2-(dimethylamino)ethyl]-8-[(1S,2S)-2-hydroxycyclohexyl]-8,9-dihydro-7H-pyrrolo[3,4-h]quinolin-7-one] | 99
16 | O=C1c2cc(Cc3cccnc3)c3ccccc3c2CN1[C@H]1CCCC[C@@H]1O [Example 6, 2-[(1S,2S)-2-Hydroxycyclohexyl]-5-(pyridin-3-ylmethyl)-1,2-dihydro-3H-benzo[e]isoindol-3-one] | 11
17 | COc1ccc(Cc2cc3c(c4ncccc24)C(C)(C)N([C@H]2CCCC[C@@H]2O)C3=O)cn1 [Example 18, 8-[(1S,2S)-2-Hydroxycyclohexyl]-5-[(6-methoxypyridin-3-yl)methyl]-9,9-dimethyl-8,9-dihydro-7H-pyrrolo[3,4-h]quinolin-7-one] | 310
18 | O=C1c2nc(Cc3ccc(-n4cccn4)nc3)c3ccccc3c2CN1[C@H]1CCCC[C@@H]1O (racemic) [Example 17, (±)-2-[trans-2-Hydroxycyclohexyl]-5-{[6-(1H-pyrazol-1-yl)pyridine-3-yl]methyl}-1,2-dihydro-3H-pyrrolo[3,4-c]isoquinoline-3-one] | 29
19 | O=C1CCC(Cc2cc3c(c4ncccc24)CN([C@H]2CCCC[C@@H]2O)C3=O)CN1 (stereo partly drawn) [Example 20, 8-[(1S,2S)-2-Hydroxycyclohexyl]-5-[(6-oxopiperidin-3-yl)methyl]-3,9-dihydro-7H-pyrrolo[3,4-h]quinolin-7-one] | 200
20 | COc1ccc(Cc2cc3c(c4ccccc24)CN([C@H]2CCCC[C@@H]2O)C3=O)cc1 [Example 1, 2-[(1S,2S)-2-Hydroxycyclohexyl]-5-(4-methoxybenzyl)-1,2-dihydro-3H-benzo[e]isoindol-3-one] | 53
21 | O=C1c2cc(Cc3ccc(Cl)nc3)c3ccccc3c2CN1C1C=CCCC1 (stereo not shown) [Example 5, 5-[(6-Chloropyridin-3-yl)methyl]-2-cyclohex-2-en-1-yl-1,2-dihydro-3H-benzo[e]isoindol-3-one] | 2470
22 | O=C1c2nc(Cc3ccc(Cl)nc3)c3ccccc3c2CN1[C@H]1CCCC[C@@H]1O (racemic) [Example 16, (±)-5-[(6-Chloropyridin-3-yl)methyl]-2-[trans-2-hydroxycyclohexyl]-1,2-dihydro-3H-pyrrolo[3,4-c]isoquinoline-3-one] | 49
